Active and inactive are the calls of the source. No rule for the calls is given here.

The series relates to CCRIS mutagenicity, Ames/micronucleus/aberration tests. The series can be described thus: CCRIS mutagenicity studies.
The mark [1] stands for this setting: Test System: AMES SALMONELLA TYPHIMURIUM, Strain/Indicator: TA98, Metabolic Activation: NONE, Method: PREINCUBATION
The mark [2] stands for this setting: Test System: AMES SALMONELLA TYPHIMURIUM, Strain/Indicator: TA98, Metabolic Activation: RAT, LIVER, S-9, AROCLOR 1254, Method: PREINCUBATION
Setting [3] is: Test System: AMES SALMONELLA TYPHIMURIUM, Strain/Indicator: TA100, Metabolic Activation: NONE, Method: PREINCUBATION
[4] abbreviates: Test System: AMES SALMONELLA TYPHIMURIUM, Strain/Indicator: TA100, Metabolic Activation: RAT, LIVER, S-9, AROCLOR 1254, Method: PREINCUBATION
The mark [5] stands for this setting: Test System: AMES SALMONELLA TYPHIMURIUM, Strain/Indicator: TA104, Metabolic Activation: NONE, Method: PREINCUBATION
The mark [6] stands for this setting: Test System: AMES SALMONELLA TYPHIMURIUM, Strain/Indicator: TA1535, Metabolic Activation: NONE, Method: PREINCUBATION
The mark [7] stands for this setting: Test System: AMES SALMONELLA TYPHIMURIUM, Strain/Indicator: TA1537, Metabolic Activation: NONE, Method: PREINCUBATION

On to `Cc1ccccn1`, for which the mutagenic call was “inactive; negative” (Test System: AMES SALMONELLA TYPHIMURIUM, Strain/Indicator: TA97, Metabolic Activation: NONE, Method: STANDARD PLATE); “inactive; negative” (Test System: AMES SALMONELLA TYPHIMURIUM, Strain/Indicator: TA97, Metabolic Activation: RAT, LIVER, S-9, AROCLOR 1254, Method: STANDARD PLATE); “inactive; negative” under setting [1]; “inactive; negative” (Test System: AMES SALMONELLA TYPHIMURIUM, Strain/Indicator: TA98, Metabolic Activation: NONE, Method: STANDARD PLATE); “inactive; negative” (Test System: AMES SALMONELLA TYPHIMURIUM, Strain/Indicator: TA98, Metabolic Activation: RAT LIVER S-9, PHENOBARBITAL AND BETA-NAPHTHOFLAVONE, Method: PREINCUBATION); “inactive; negative” under setting [2]. The mutagenic call by setting is: (Test System: AMES SALMONELLA TYPHIMURIUM, Strain/Indicator: TA98, Metabolic Activation: RAT, LIVER, S-9, AROCLOR 1254, Method: STANDARD PLATE) “inactive; negative”; under setting [3], “inactive; negative”; (Test System: AMES SALMONELLA TYPHIMURIUM, Strain/Indicator: TA100, Metabolic Activation: NONE, Method: STANDARD PLATE) “inactive; negative”; (Test System: AMES SALMONELLA TYPHIMURIUM, Strain/Indicator: TA100, Metabolic Activation: RAT LIVER S-9, PHENOBARBITAL AND BETA-NAPHTHOFLAVONE, Method: PREINCUBATION) “inactive; negative”; under setting [4], “inactive; negative”; (Test System: AMES SALMONELLA TYPHIMURIUM, Strain/Indicator: TA100, Metabolic Activation: RAT, LIVER, S-9, AROCLOR 1254, Method: STANDARD PLATE) “inactive; negative”. The mutagenic call (Test System: AMES SALMONELLA TYPHIMURIUM, Strain/Indicator: TA102, Metabolic Activation: NONE, Method: PREINCUBATION) is “inactive; negative”; the mutagenic call (Test System: AMES SALMONELLA TYPHIMURIUM, Strain/Indicator: TA102, Metabolic Activation: NONE, Method: STANDARD PLATE) was “inactive; negative”; the mutagenic call (Test System: AMES SALMONELLA TYPHIMURIUM, Strain/Indicator: TA102, Metabolic Activation: RAT LIVER S-9, PHENOBARBITAL AND BETA-NAPHTHOFLAVONE, Method: PREINCUBATION) is “inactive; negative”; the mutagenic call (Test System: AMES SALMONELLA TYPHIMURIUM, Strain/Indicator: TA102, Metabolic Activation: RAT, LIVER, S-9, AROCLOR 1254, Method: PREINCUBATION) is “inactive; negative”; the mutagenic call (Test System: AMES SALMONELLA TYPHIMURIUM, Strain/Indicator: TA102, Metabolic Activation: RAT, LIVER, S-9, AROCLOR 1254, Method: STANDARD PLATE) was “inactive; negative”; the mutagenic call under setting [5] is “inactive; negative”. The mutagenic call is, setting by setting: (Test System: AMES SALMONELLA TYPHIMURIUM, Strain/Indicator: TA104, Metabolic Activation: RAT LIVER S-9, PHENOBARBITAL AND BETA-NAPHTHOFLAVONE, Method: PREINCUBATION) “inactive; negative”; under setting [6], “inactive; negative”; (Test System: AMES SALMONELLA TYPHIMURIUM, Strain/Indicator: TA1535, Metabolic Activation: RAT LIVER S-9, PHENOBARBITAL AND BETA-NAPHTHOFLAVONE, Method: PREINCUBATION) “inactive; negative”; under setting [7], “inactive; negative”; (Test System: AMES SALMONELLA TYPHIMURIUM, Strain/Indicator: TA1537, Metabolic Activation: RAT LIVER S-9, PHENOBARBITAL AND BETA-NAPHTHOFLAVONE, Method: PREINCUBATION) “inactive; negative”; (Test System: E.COLI, Strain/Indicator: WP2UVRA/PKM101, Metabolic Activation: NONE, Method: PREINCUBATION) “inactive; negative”. In addition, the mutagenic call (Test System: E.COLI, Strain/Indicator: WP2UVRA/PKM101, Metabolic Activation: RAT LIVER S-9, PHENOBARBITAL AND BETA-NAPHTHOFLAVONE, Method: PREINCUBATION) was “inactive; negative”; the mutagenic call (Test System: E.COLI, Strain/Indicator: WP2UVRA, Metabolic Activation: NONE, Method: PREINCUBATION) is “inactive; negative”; the mutagenic call (Test System: E.COLI, Strain/Indicator: WP2UVRA, Metabolic Activation: RAT LIVER S-9, PHENOBARBITAL AND BETA-NAPHTHOFLAVONE, Method: PREINCUBATION) was “inactive; negative”.

Take `c1cc(OCC2CO2)cc(OCC2CO2)c1` (centres undefined): the mutagenic call by setting is: (End Point: IN VITRO CHROMOSOMAL ABERRATIONS, Test System: CHO CELLS, Metabolic Activation: NONE) “active; positive”; (End Point: IN VITRO CHROMOSOMAL ABERRATIONS, Test System: CHO CELLS, Metabolic Activation: RAT, LIVER, S-9, AROCLOR 1254) “active; positive; weak response”; (Test System: AMES SALMONELLA TYPHIMURIUM, Strain/Indicator: TA98, Metabolic Activation: HAMSTER, LIVER, S-9, AROCLOR 1254, Method: PREINCUBATION) “inactive; negative”; under setting [1], “inactive; negative”; under setting [2], “inactive; negative”; (Test System: AMES SALMONELLA TYPHIMURIUM, Strain/Indicator: TA100, Metabolic Activation: HAMSTER, LIVER, S-9, AROCLOR 1254, Method: PREINCUBATION) “active; positive”. Moreover, the mutagenic call is, setting by setting: under setting [3], “active; positive”; (Test System: AMES SALMONELLA TYPHIMURIUM, Strain/Indicator: TA100, Metabolic Activation: RAT, LIVER, S-9, AROCLOR 1254 (10%), Method: PREINCUBATION) “active; positive”; under setting [4], “active; positive”; (Test System: AMES SALMONELLA TYPHIMURIUM, Strain/Indicator: TA1535, Metabolic Activation: HAMSTER, LIVER, S-9, AROCLOR 1254 (10%), Method: PREINCUBATION) “active; positive”; (Test System: AMES SALMONELLA TYPHIMURIUM, Strain/Indicator: TA1535, Metabolic Activation: HAMSTER, LIVER, S-9, AROCLOR 1254, Method: PREINCUBATION) “active; positive”; under setting [6], “active; positive”. Besides, the mutagenic call reads like this: (Test System: AMES SALMONELLA TYPHIMURIUM, Strain/Indicator: TA1535, Metabolic Activation: RAT, LIVER, S-9, AROCLOR 1254 (10%), Method: PREINCUBATION) “active; positive”; (Test System: AMES SALMONELLA TYPHIMURIUM, Strain/Indicator: TA1535, Metabolic Activation: RAT, LIVER, S-9, AROCLOR 1254, Method: PREINCUBATION) “active; positive”; (Test System: AMES SALMONELLA TYPHIMURIUM, Strain/Indicator: TA1537, Metabolic Activation: HAMSTER, LIVER, S-9, AROCLOR 1254, Method: PREINCUBATION) “inactive; negative”; under setting [7], “inactive; negative”; (Test System: AMES SALMONELLA TYPHIMURIUM, Strain/Indicator: TA1537, Metabolic Activation: RAT, LIVER, S-9, AROCLOR 1254, Method: PREINCUBATION) “inactive; negative”; (Test System: MOUSE LYMPHOMA, Strain/Indicator: L5178Y (HPRT), Metabolic Activation: NONE, Method: SUSPENSION/PLATE) “inactive; negative”. Moreover, the mutagenic call (Test System: MOUSE LYMPHOMA, Strain/Indicator: L5178Y (TK+/TK-), Metabolic Activation: NONE, Method: SUSPENSION/PLATE) is “active; positive”.

Consider `O=Cc1cccc(Cl)c1Cl`, for which the mutagenic call under setting [1] was “inactive; negative”; the mutagenic call (Test System: AMES SALMONELLA TYPHIMURIUM, Strain/Indicator: TA98, Metabolic Activation: RAT LIVER S-9, PCB, Method: PREINCUBATION) is “inactive; negative”; the mutagenic call under setting [3] is “inactive; negative”; the mutagenic call (Test System: AMES SALMONELLA TYPHIMURIUM, Strain/Indicator: TA100, Metabolic Activation: RAT LIVER S-9, PCB, Method: PREINCUBATION) is “inactive; negative”; the mutagenic call under setting [5] was “inactive; negative”; the mutagenic call (Test System: AMES SALMONELLA TYPHIMURIUM, Strain/Indicator: TA104, Metabolic Activation: RAT LIVER S-9, PCB, Method: PREINCUBATION) was “inactive; negative”. The mutagenic call is “inactive; negative” (Test System: E.COLI, Strain/Indicator: WP2 UVRA, Metabolic Activation: NONE, Method: PREINCUBATION) and “inactive; negative” (Test System: E.COLI, Strain/Indicator: WP2 UVRA, Metabolic Activation: RAT LIVER S-9, PCB, Method: PREINCUBATION).

The record behind these values is PubChem BioAssay AID1259407 (Chemical Carcinogenesis Research Information System (CCRIS), 2018).
